This is an account of results in PMC7321382, “Synthesis and Antibacterial Analysis of Analogues of the Marine Alkaloid Pseudoceratidine” (Molecules, 2020).

In brackets after ≈: the same amount, converted by molar mass.

For one series, the system named is S. aureus 16207. Kind of series: Antibacterial MIC, broth microdilution, S. aureus. In kind it is cell-based, Staphylococcus aureus. The following applies: Gram-positive, 24 h incubation, highest concentration tested 32 µM; for MIC: Staphylococcus aureus, 16207. On the procedure: (§1) The MIC was determined using the broth microdilution method. Mueller Hinton (MH) broth base was prepared in milli-Q water, then autoclaved at 120 °C for 1 h before allowing it to cool to room temperature. A single colony of each bacterial strain (E. coli DH5α and S. aureus 16207) was inoculated in MHB and incubated at 37 °C overnight. Overnight cultures were adjusted to 10^6 CFU/mL in MHB according to the McFarland Standard,100 μL of which was further diluted to a total of 10 mL in the media. The stock solutions of the compounds were prepared at 12.8 mM in purified DMSO. The stock solutions were further diluted in milli-Q water to 64 μM in 0.5% DMSO for testing against S. aureus, and 256 μM in 2% DMSO for testing against E. coli. Compounds that were not soluble in these solvent mixtures were further diluted in half to get clear solutions for the bioassay. DMSO is known to have weak antibacterial activity. To exclude the antibacterial effect of DMSO from the results, a solution of 2% DMSO in milli-Q water was used as an additional control in the experiments. The compounds and three controls (the natural product pseudoceratidine 1 for both strains, streptomycin for S. aureus, and polymyxin B for E. coli) then underwent a dilution series. The assay was performed by adding 50 μL of each compound solution at the different concentrations and 50 μL of the diluted bacterial culture to the different wells of a 96-well microtiter plate. The experiments were performed at least thrice and in triplicates. MIC after 24 h of incubation was determined by both visual inspection and absorbance at 600 nm using an EnSpire Multimode plate reader.
In general terms: Dilution methods test growth across graded concentrations, often in twofold steps.

The subject of a further series is E. coli DH5α. Description: Antibacterial MIC, broth microdilution, E. coli. In kind it is cell-based, Escherichia coli. The following applies: for MIC: Escherichia coli, Gram-negative, 24 h incubation, highest concentration tested 128 µM, † lower starting concentration due to insolubility. As for the experimental part: as §1
Series [1] deals with HEK293 human embryonic kidney cells. Kind of series: Cytotoxicity, sulforhodamine B cell proliferation assay. In kind it is cell-based. The settings on record: for relative growth of HEK293 cells (% of untreated control) at 16 µM: Homo sapiens, 72 h, 16 µM compound, 3 days, relative to control with no treatment, mean ± SD of triplicates. As for the experimental part:
As described previously, cell proliferation was measured by sulforhodamine B colorimetric assay in which 2000 HEK293 human embryonic kidney cells were seeded in 96-well plates in the presence of varying concentrations of drugs. The sulforhodamine B colorimetric assay, which is based on the measurement of cellular protein content, was used to measure cell density. After drug treatment for 3 days, cells were fixed with 10% (w/v) trichloroacetic acid and stained with 0.057% (w/v) sulforhodamine B for 30 min, and the excess dye was removed by washing repeatedly with 1% (v/v) acetic acid. The protein-bound dye was dissolved in Tris base solution (10 mM) for optical density determination at 510 nm using a microplate reader. All experiments were done in triplicate, and were repeated at least twice. The optimal cell densities were previously determined to select initial cell densities that ensured that the cells were in the logarithmic phase for the experiments.

The subject of another series is Escherichia coli. On the set-up: method as in doi:10.1016/S0960-894X(96)00622-1, doi:10.1016/S0040-4020(98)00340-8, doi:10.1016/0040-4039(96)01310-X. The settings on record: Gram-negative; cited from earlier work.
The subject of the next series is Listeria monocytogenes. On the set-up: method as in doi:10.1016/S0960-894X(96)00622-1, doi:10.1016/S0040-4020(98)00340-8, doi:10.1016/0040-4039(96)01310-X. The settings on record: Gram-positive; cited from earlier work.
A further series deals with Balanus amphitrite. On the set-up: method as in doi:10.1016/0040-4039(96)00025-1. The following applies: marine larval organism Balanus amphitrite; cited from earlier work.
Another series relates to Candida albicans. On the set-up: method as in doi:10.1016/S0960-894X(96)00622-1, doi:10.1016/S0040-4020(98)00340-8, doi:10.1016/0040-4039(96)01310-X. The settings on record: anti-fungal; cited from earlier work.
The next series concerns Staphylococcus aureus. On the set-up: method as in doi:10.1016/S0960-894X(96)00622-1, doi:10.1016/S0040-4020(98)00340-8, doi:10.1016/0040-4039(96)01310-X. The following applies: Gram-positive; cited from earlier work.
The next series concerns Pseudomonas aeruginosa. On the set-up: method as in doi:10.1016/S0960-894X(96)00622-1, doi:10.1016/S0040-4020(98)00340-8, doi:10.1016/0040-4039(96)01310-X. The settings on record: Gram-negative; cited from earlier work.
The test system of a further series is Plasmodium falciparum. On the set-up: method as in PMID 29297684. The following applies: anti-malarial; cited from earlier work.
A further series deals with HepG2 liver cell line. On the set-up: method as in PMID 29297684. The settings on record: compared with HEK293 result; cited from earlier work.

Turning to `O=C(NCCCCCCNCCCCCCNC(=O)c1cc(Cl)c(Cl)[nH]1)c1cc(Cl)c(Cl)[nH]1` [Compound 15c], the melting point fell in the range of 189 to 190 °C. Also, in the series with S. aureus 16207, the “MIC S. Aureus” value was 4 to 8 µM and the MIC is 4 to 8 µM (≈ 2.16 to 4.31 µg/mL). Moreover, the minimal inhibitory concentration (MIC) in the series with E. coli DH5α lay within 32 to 64 µM (≈ 17.3 to 34.5 µg/mL). The compound also yielded a relative growth of HEK293 cells (% of untreated control) at 16 µM in series [1] of 1.8 ± 2%.

`O=C(NCCCCNCCCNC(=O)c1cc(Br)c(Br)[nH]1)c1cc(Br)c(Br)[nH]1` [Pseudoceratine 1, pseudoceratidine]: the “MIC Escherichia coli” value in the series with Escherichia coli is given as 32 µg/mL (≈ 49.5 µM). Besides, in the series with Listeria monocytogenes, the “MIC Listeria monocytogenes” value was 5 µg/mL (≈ 7.73 µM). In the series with Balanus amphitrite, the EC50 antifouling is listed as 8 µg/mL (≈ 12.4 µM). In the series with S. aureus 16207, the “MIC S. Aureus” value lay in the range of 8 to 16 µM and the minimum inhibitory concentration (MIC) lay within 8 to 16 µM (≈ 5.18 to 10.4 µg/mL). For the same compound, the “MIC Candida albicans” value in the series on Candida albicans is recorded as 32 µg/mL (≈ 49.5 µM). In the series on Staphylococcus aureus, the “MIC Staphylococcus aureus” value was 4 µg/mL (≈ 6.18 µM). For the same compound, the “MIC Pseudomonas aeruginosa” value with Pseudomonas aeruginosa is 128 µg/mL (≈ 198 µM). In the series with E. coli DH5α, this compound showed an MIC of 32 to 64 µM (≈ 20.7 to 41.4 µg/mL). Besides, in series [1], the relative growth of HEK293 cells (% of untreated control) at 16 µM was found to be 0.7 ± 0.8%. Further, the EC50 in the series on Plasmodium falciparum was 1 µM.

On to `O=C(NCCCNCCCCNCCCNC(=O)c1cc(Br)c(Br)[nH]1)c1cc(Br)c(Br)[nH]1` [Compound 19e], for which the “cytotoxicity versus HepG2 (in words)” value with HepG2 liver cell line is reported as “far less toxic”. For the same compound, in the series with S. aureus 16207, the “MIC S. Aureus” value lay within 2 to 4 µM and the MIC was 2 to 4 µM (≈ 1.41 to 2.82 µg/mL). Further, the MIC with E. coli DH5α fell in the range of 32 to 64 µM (≈ 22.5 to 45.1 µg/mL). The “cytotoxic activity (in words)” value in [1] (HEK293, at concentrations 2–4 times the MIC (16 µM)) is on record as “almost no cytotoxic activity”. In series [1], the relative growth of HEK293 cells (% of untreated control) at 16 µM came to 94.5 ± 5.9%.

The compound `O=C(NCCCNCCNC(=O)c1cc(Br)c(Br)[nH]1)c1cc(Br)c(Br)[nH]1` [Compound 16e] gave a melting point of 206 to 208 °C. In the series with S. aureus 16207, the “MIC S. Aureus” value was 8 to 16 µM and the MIC is 8 to 16 µM (≈ 4.95 to 9.9 µg/mL). Moreover, the MIC in the series with E. coli DH5α lay within 64 to 128 µM (≈ 39.6 to 79.2 µg/mL). The relative growth of HEK293 cells (% of untreated control) at 16 µM in series [1] amounted to 2.6 ± 2%.

Take `O=C(NCCCNCCCNC(=O)c1cc(Cl)c(Cl)[nH]1)c1cc(Cl)c(Cl)[nH]1` [Compound 14c]: the melting point was 189 to 190 °C. In the series with S. aureus 16207, the “MIC S. Aureus” value was in the range of 8 to 16 µM and the MIC lay in the range of 8 to 16 µM (≈ 3.64 to 7.28 µg/mL). Further, the MIC with E. coli DH5α fell in the range of 64 to 128 µM (≈ 29.1 to 58.3 µg/mL). The relative growth of HEK293 cells (% of untreated control) at 16 µM in series [1] is 0.5 ± 0.3%.

Regarding `O=C(NCCCNCCCCNCCCNC(=O)c1cc(Cl)c(Cl)[nH]1)c1cc(Cl)c(Cl)[nH]1` [Compound 19c], the melting point is 110 to 112 °C. Further, in the series with S. aureus 16207, the “MIC S. Aureus” value is 4 to 8 µM and the MIC fell in the range of 4 to 8 µM (≈ 2.11 to 4.21 µg/mL). The MIC with E. coli DH5α fell in the range of 128 to 256 µM (≈ 67.4 to 135 µg/mL). In addition, in [1], the relative growth of HEK293 cells (% of untreated control) at 16 µM is 1.6 ± 2%.

With `O=C(NCCCNCCCNC(=O)c1cc(Br)c(Br)[nH]1)c1cc(Br)c(Br)[nH]1` [Compound 14e], the melting point fell in the range of 135 to 137 °C. Also, in the series on S. aureus 16207, the “MIC S. Aureus” value lay within 8 to 16 µM and the MIC lay within 8 to 16 µM (≈ 5.06 to 10.1 µg/mL). For the same compound, the MIC against E. coli DH5α is 32 to 64 µM (≈ 20.3 to 40.5 µg/mL). The compound also showed a relative growth of HEK293 cells (% of untreated control) at 16 µM in series [1] of 1.1 ± 0.9%.

The compound `O=C(NCCCNCCNC(=O)c1cc(Cl)c(Cl)[nH]1)c1cc(Cl)c(Cl)[nH]1` [Compound 16c] returned a melting point of 133 to 135 °C. In the series with S. aureus 16207, the “MIC S. Aureus” value lay in the range of 16 to 32 µM and the MIC lay within 16 to 32 µM (≈ 7.06 to 14.1 µg/mL). In addition, in the series with E. coli DH5α, the “activity against Gram-negative bacteria compared with 1 (in words)” value is listed as “equivalents activity to 1” and the MIC was 32 to 64 µM (≈ 14.1 to 28.2 µg/mL). This compound registered a relative growth of HEK293 cells (% of untreated control) at 16 µM in [1] of 2.5 ± 1.8%.

The MIC is the lowest concentration found to suppress growth. The melting point is the temperature of the solid-liquid transition. By EC50 is commonly meant the concentration that produces a half-maximal response.
